In US8071600B2, “Derivatives of 4-piperazin-1-yl-4-benzo[B]thiophene suitable for the treatment of CNS disorders” (Otsuka Pharmaceutical Co., Ltd., priority 2005, dated 2011) one finds Ki and melting point data, which are given here for 33 compounds.

Structures can show the parent of a compound that is named as a salt.

In data set [1] the target is T1, Serotonin 5-HT2A receptor (Rattus norvegicus, UniProt P14842).
T1 construct: from tissue; host or cells: Wistar rat brain, frontal cortex membranes
T1 sequence (P14842 whole entry): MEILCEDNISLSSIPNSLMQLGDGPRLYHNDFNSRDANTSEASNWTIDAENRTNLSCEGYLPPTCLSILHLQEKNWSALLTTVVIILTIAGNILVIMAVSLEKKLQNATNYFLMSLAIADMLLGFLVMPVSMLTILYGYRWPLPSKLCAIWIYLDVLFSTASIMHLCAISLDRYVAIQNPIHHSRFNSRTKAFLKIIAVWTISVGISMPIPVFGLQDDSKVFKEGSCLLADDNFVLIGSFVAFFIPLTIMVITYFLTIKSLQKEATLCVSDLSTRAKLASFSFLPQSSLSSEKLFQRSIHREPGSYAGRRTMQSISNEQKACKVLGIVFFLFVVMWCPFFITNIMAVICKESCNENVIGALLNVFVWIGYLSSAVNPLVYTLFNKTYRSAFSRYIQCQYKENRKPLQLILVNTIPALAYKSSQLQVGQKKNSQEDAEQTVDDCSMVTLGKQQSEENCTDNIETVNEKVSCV
In words: Serotonin 5-HT2A receptor binding assay ([3H]-Ketanserin). Particulars: Serotonin 5-HT2A receptor binding test, rat frontal cortex membrane, Ki calculated from IC50 by Cheng-Prussoff formula. The procedure: 2) Serotonin 5-HT2A Receptor Binding Assay
The assay was performed according to the method by Leysen J E et al. (Leysen J E, Niemegeers C J E, Van Nueten J M and Laduron P M. [3H] Ketanserin (R 41 468), a selective 3H-ligand for serotonin 2 receptor binding sites. Mol. Pharmacol., 1982, 21: 301-314).
Wistar male rats were decapitated, the brain was retrieved immediately and frontal cortex was taken out. It was homogenized in 0.25 M sucrose of a volume 10 times of the weight of the tissue using a Teflon glass homogenizer, and centrifuged at 4° C., 1,000×g for 10 minutes. The obtained supernatant was transferred to another centrifuge tube and suspended in 0.25 M sucrose of a volume 5 times of the weight of the tissue and the precipitate was centrifuged in the above-described condition. The obtained supernatant was combined with the supernatant obtained above and adjusted to a volume 40 times of the weight of the tissue with 50 mM Tris-hydrochloric acid buffer (pH 7.4), and centrifuged at 4° C., 35,000×g for 10 minutes. The obtained precipitate was suspended again in the above-described buffer of a volume 40 times of the weight of the tissue and centrifuged in the above-described condition. The obtained precipitate was suspended in the above-described buffer of a volume 20 times of the weight of the tissue and preserved by freezing at −85° C. till it was used for binding assay as a membrane specimen.
The binding assay was performed using 40 μl of the membrane specimen, 20 μl of [^3H]-Ketanserin (final concentration 1 to 3 nM), 20 μl of a test drug and 50 mM Tris-hydrochloric acid buffer (pH 7.4) so that the total amount was 200 μl (final dimethylsulfoxide concentration 1%). The reaction was performed at 37° C. for 20 minutes and terminated by conducting suction filtration with a cell harvester on a glass fiber filter plate.
The filter plate made of glass fiber was washed with 50 mM Tris-hydrochloric acid buffer (pH 7.4), and after dried, a microplate liquid scintillation cocktail was added and the radioactivity was measured with a microplate scintillation counter. Radioactivity in the presence of 10 μM spiperone was assumed as nonspecific binding.
(§1) IC50 value was calculated from concentration-dependent reaction using a non-linear analysis program. Ki value was calculated from IC50 value using Cheng-Prussoff formula.

Another data set deals with T2, Dopamine D2 receptor (Rattus norvegicus, UniProt P61169).
T2 construct: from tissue; host or cells: Wistar rat brain, corpus striatum membranes
T2 sequence (P61169 whole entry): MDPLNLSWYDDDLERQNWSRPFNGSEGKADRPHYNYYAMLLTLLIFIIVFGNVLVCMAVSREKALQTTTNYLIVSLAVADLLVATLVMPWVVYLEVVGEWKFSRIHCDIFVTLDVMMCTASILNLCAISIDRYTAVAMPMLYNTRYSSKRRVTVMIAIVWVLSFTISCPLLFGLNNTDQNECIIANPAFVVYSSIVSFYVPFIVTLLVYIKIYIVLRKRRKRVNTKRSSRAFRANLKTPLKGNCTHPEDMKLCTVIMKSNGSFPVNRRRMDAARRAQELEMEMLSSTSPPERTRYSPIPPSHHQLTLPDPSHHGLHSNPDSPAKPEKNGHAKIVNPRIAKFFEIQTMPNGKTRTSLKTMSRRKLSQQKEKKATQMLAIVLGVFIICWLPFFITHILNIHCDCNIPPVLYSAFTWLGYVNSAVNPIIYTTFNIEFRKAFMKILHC
In words: Dopamine D2 receptor binding assay ([3H]-raclopride). Particulars: Dopamine D2 receptor binding test, rat corpus striatum membrane, Ki calculated from IC50 by Cheng-Prussoff formula. Here is the method:
1) Dopamine D2 Receptor Binding Assay
The assay was performed according to the method by Kohler et al. (Kohler C, Hall H, Ogren S O and Gawell L, Specific in vitro and in vivo binding of 3H-raclopride. A potent substituted benzamide drug with high affinity for dopamine D-2 receptors in the rat brain. Biochem. Pharmacol., 1985; 34: 2251-2259).
Wistar male rats were decapitated, the brain was retrieved immediately and corpus striatum was taken out. It was homogenized in 50 mM tris(hydroxymethyl)aminomethane (Tris)-hydrochloric acid buffer (pH 7.4) of a volume 50 times of the weight of the tissue using a homogenizer with a high-speed rotating blade, and centrifuged at 4° C., 48,000×g for 10 minutes. The obtained precipitate was suspended again in the above-described buffer of a volume 50 times of the weight of the tissue and after incubated at 37° C. for 10 minutes, centrifuged in the above-described condition. The obtained precipitate was suspended in 50 mM (Tris)-hydrochloric acid buffer (containing 120 mM NaCl, 5 mM KCl, 2 mM CaCl2, 1 mM MgCl2, pH 7.4) of a volume 25 times of the weight of the tissue and preserved by freezing at −85° C. till it was used for binding assay as a membrane specimen.
The binding assay was performed using 40 μl of the membrane specimen, 20 μl of [^3H]-raclopride (final concentration 1 to 2 nM), 20 μl of a test drug and 50 mM Tris-hydrochloric acid buffer (containing 120 mM NaCl, 5 mM KCl, 2 mM CaCl2, 1 mM MgCl2, pH 7.4) so that the total amount was 200 μl (final dimethylsulfoxide concentration 1%). The reaction was performed at room temperature for 1 hour and terminated by conducting suction filtration with a cell harvester on a glass fiber filter plate. The filter plate made of glass fiber was washed with 50 mM Tris-hydrochloric acid buffer (pH 7.4), and after dried, a microplate liquid scintillation cocktail was added and the radioactivity was measured with a microplate scintillation counter. Radioactivity in the presence of 10 μM (+)-butaclamol hydrochloride was assumed as nonspecific binding.
as §1

As for `NC(=O)c1ccc(OCCCCN2CCN(c3cccc4sccc34)CC2)cc1` [Example 169], the melting point was in the range of 150 to 151.5 °C. For the same compound, the Ki in data set [1] was 2.6 nM. In addition, on Dopamine D2 receptor, the Ki was 0.9 nM.
Take `CNC(=O)c1cc(OCCCN2CCN(c3cccc4sccc34)CC2)n(C)n1.Cl` [Example 3, N-methyl-5-[3-(4-benzo[b]thiophen-4-yl-piperazin-1-yl)propoxy]-1-methyl-1H-pyrazole-3-carboxamide hydrochloride]: the melting point was 228 to 232.5 °C (dec.). Further, the Ki in data set [1] was 6 nM. Further, the Ki on Dopamine D2 receptor is 1.5 nM.
Turning to `CNC(=O)c1ccc(OCCCN2CCN(c3cccc4sccc34)CC2)nc1` [Example 27], the melting point fell in the range of 132.5 to 133.5 °C. Moreover, the inhibitory constant (Ki) in data set [1] was 1 nM. For the same compound, at Dopamine D2 receptor, the Ki was 1.5 nM.
Consider `NC(=O)c1ccc(F)c(OCCCN2CCN(c3cccc4sccc34)CC2)c1` [Example 271], for which the melting point fell in the range of 156.5 to 159 °C. Moreover, the Ki in data set [1] was 0.6 nM. Moreover, on Dopamine D2 receptor, the inhibition constant (Ki) is 1.2 nM.
Consider `CNC(=O)c1cc(C)c(OCCCN2CCN(c3cccc4sccc34)CC2)c(OC)c1` [Example 252], for which the melting point lay in the range of 141.5 to 142.5 °C. For the same compound, the Ki in data set [1] was 0.3 nM. The inhibitory constant (Ki) at Dopamine D2 receptor is 0.3 nM.
With `CNC(=O)c1cc(C)c(OCCCN2CCN(c3cccc4sccc34)CC2)c(C)c1` [Example 241], the melting point fell in the range of 152.5 to 154.5 °C. Also, in data set [1], the Ki is 0.7 nM. Also, at Dopamine D2 receptor, the Ki is 0.4 nM.
For `NC(=O)Cc1ccc(OCCCN2CCN(c3cccc4sccc34)CC2)cc1` [Example 340] the same measures were 149.5 to 150.5 °C, 4.8 nM and 1.9 nM.
Regarding `NC(=O)c1cc(OCCCN2CCN(c3cccc4sccc34)CC2)ccn1` [Example 48], the melting point fell in the range of 150 to 150.5 °C. Further, the Ki in data set [1] is 3.8 nM. On Dopamine D2 receptor, the Ki was 2.3 nM.
With `COc1cc(CN(C)C)ccc1OCCCN1CCN(c2cccc3sccc23)CC1` [Example 301], the melting point lay within 101 to 103 °C. Further, the Ki in data set [1] is 0.4 nM. In addition, at Dopamine D2 receptor, the inhibition constant (Ki) is 0.2 nM.
For `CNC(=O)c1ccc(OCCCCN2CCN(c3cccc4sccc34)CC2)cc1` [Example 170] the same measures were 154 to 156 °C, 3.3 nM and 1 nM.
Compound `CNC(=O)c1ccc(OCCCN2CCN(c3cccc4sccc34)CC2)c(C)c1` [Example 186] registered a melting point of 156.5 to 158 °C. In addition, the inhibition constant Ki in data set [1] was 2 nM. Further, the inhibitory constant (Ki) at Dopamine D2 receptor was 1.3 nM.
`CCNC(=O)Cc1ccc(OCCCN2CCN(c3cccc4sccc34)CC2)cc1` [Example 323]: the melting point lay in the range of 112.5 to 113.5 °C. The Ki in data set [1] is 0.7 nM. Moreover, the Ki at Dopamine D2 receptor was 1.5 nM.
For `O=c1[nH]cnc2ccc(OCCCN3CCN(c4cccc5sccc45)CC3)cc12` [Example 94], the melting point lay in the range of 213.1 to 218.5 °C. Moreover, the inhibition constant (Ki) in data set [1] is 2 nM. Moreover, on Dopamine D2 receptor, the inhibition constant Ki was 2.4 nM.
`COc1cc(C(N)=O)ccc1OCCCN1CCN(c2cccc3sccc23)CC1` [Example 190] yielded a melting point of 162 to 163.5 °C. Also, in data set [1], the Ki is 0.6 nM. In addition, the inhibition constant (Ki) at Dopamine D2 receptor was 1.2 nM.
`NS(=O)(=O)c1ccc(OCCCN2CCN(c3cccc4sccc34)CC2)cc1` [Example 394] displayed a melting point of 199 to 203 °C. Further, the inhibition constant Ki in data set [1] is 4.7 nM. The Ki on Dopamine D2 receptor is 3.8 nM.
Regarding `CN1CCN(Cc2ccc(OCCCN3CCN(c4cccc5sccc45)CC3)cc2)CC1` (as salt: hydrochloride) [Example 314], the melting point was 261.5 °C (dec.).
In turn, `COc1cc(C(N)=O)cc(OC)c1OCCCN1CCN(c2cccc3sccc23)CC1` [Example 243] returned a melting point of 147.5 to 148 °C. Moreover, the Ki in data set [1] was 0.5 nM. Moreover, on Dopamine D2 receptor, the inhibitory constant (Ki) is 0.2 nM.
Regarding `CCNCc1ccc(OCCCN2CCN(c3cccc4sccc34)CC2)cc1` (as salt: hydrochloride) [Example 286], the melting point was 228 to 241 °C (dec.).
On to `CNC(=O)c1ccc(OCCCN2CCN(c3cccc4sccc34)CC2)c(N)c1` [Example 232], for which the melting point is 124 to 125.5 °C. Further, the Ki in data set [1] is 2.7 nM. Moreover, at Dopamine D2 receptor, the Ki is 1.1 nM.
As to `COc1cc(NC=O)cc(C)c1OCCCN1CCN(c2cccc3sccc23)CC1` (as salt: hydrochloride) [Example 354], the melting point is 247.5 to 253 °C (dec.).
Same read-out and setting: the same measure for `Cn1cnc2ccc(OCCCN3CCN(c4cccc5sccc45)CC3)cc2c1=O` (as salt: hydrochloride) [Example 95]: 252.9 to 254.3 °C; for `COc1cc(N2CCOC2=O)cc(CO)c1OCCCN1CCN(c2cccc3sccc23)CC1` (as salt: hydrochloride) [Example 1071]: 224 to 226.5 °C (dec.); for `CCNC(=O)c1ccnc(OCCCN2CCN(c3cccc4sccc34)CC2)c1` (as salt: hydrochloride) [Example 32]: 140 to 141.5 °C.
`CCS(=O)(=O)Nc1ccc(OCCCN2CCN(c3cccc4sccc34)CC2)cc1` (as salt: hydrochloride) [Example 345] had a melting point of 174 to 176 °C.
`CC(=O)Nc1ccc(OCCCN2CCN(c3cccc4sccc34)CC2)cc1` (as salt: hydrochloride) [Example 343] had a melting point of 283 to 285 °C.
The same measure, in the same setting: the same measure for `COc1cc(N2CCCCC2)cc(C)c1OCCCN1CCN(c2cccc3sccc23)CC1` (as salt: hydrochloride) [Example 1089]: 248 to 251 °C (dec.); for `CNC(=O)c1cc(OCCCN2CCN(c3cccc4sccc34)CC2)ncn1` (as salt: hydrochloride) [Example 58]: 205 to 209.5 °C.
Still for that read-out and setting: the same measure for `CN(C)CCc1ccc(OCCCN2CCN(c3cccc4sccc34)CC2)cc1` (as salt: hydrochloride) [Example 382]: 238.5 °C (dec.).
Same read-out and setting: the same measure for `CNC(=O)c1ccc(OC)c(OCCCN2CCN(c3cccc4sccc34)CC2)c1` (as salt: hydrochloride) [Example 281]: 163.5 to 165 °C; for `COc1cc(N)cc(C)c1OCCCN1CCN(c2cccc3sccc23)CC1` [Example 9, 4-[3-(4-benzo[b]thiophen-4-yl-piperazin-1-yl)-propoxy]-3-methoxy-5-methylaniline]: 155 to 158 °C.
`CCN(CC)CCNC(=O)c1ccc(OCCCN2CCN(c3cccc4sccc34)CC2)cc1` (as salt: hydrochloride) [Example 160] gave a melting point of 229.5 to 232.5 °C.
The compound `CC(=O)N1CCC(OCCCN2CCN(c3cccc4sccc34)CC2)CC1.Cl` registered a melting point of 208 to 210 °C.
The compound `COC(=O)N1CCN(c2cc(C)c(OCCCN3CCN(c4cccc5sccc45)CC3)c(OC)c2)C(=O)C1` (as salt: hydrochloride) [Example 1080] had a melting point of 223 to 228 °C.
